Measured values reported in patent US10513529B2, “1,2,4-triazolo-[3,4-b]-1,3,4-thiadiazole derivatives” (GALENICA S.A., priority 2016, dated 2019).
Where “and” joins values, the source holds several entries; their conditions need not be identical. Equal values may be shown once. Each block holds one compound with its values, some of them ahead of it.

What was measured:
[1] = system: UWB1.289 + BRCA1 human ovarian cancer cell line; test: MTT cytostatic-cytotoxic activity, UWB1.289+BRCA1; type: cell-based; settings: for IC50: kills 50% of the cells
Description: Human ovarian adenocarcinoma cells, derived from UBWB1,289, in which the presence of the BRCA1 gene has been restored. […] They are not susceptible to ionizing radiation and radioimmune chemical agents (e.g., alkylating agents). Also, UWB1.289 cells have mutated the p53 tumor suppressor gene, and are positive for the expression of cytokeratin 7 (CK-7), calretinin and Wilms' tumor protein (WT).
(§1) All cancer cell lines are stored in a liquid nitrogen tank in 2.5 ml cryovials (Corning-Costar, Cambridge, Mass.). DMSO (dimethylsulfoxide) act as a cryoprotectant and is added to prevent the formation of ice crystals which may lyse the cells. The Cells were grown as monolayer cultures in T-75 flasks (Corning-Costar, Cambridge, Mass.) and maintained at 37° C. in 5% CO2 incubator & 100% relative humidity. The cultures medium used are McCoy's 5a Medium, supplemented with 10% fetal bovine serum (FBS, Gibco) and 1% antibiotics (100 IU/ml penicillin/100 µg/ml streptomycin), sterilized by filtration (Corning-Costar filter, diameter 0.2 μm, RPMI-1640 and 50% RPMI-1640 (Catalog No 30-2001) plus 50% Mammary Epithelial Growth Medium (MEGM), supplemented with 10% fetal bovine serum (FBS, Gibco) and 1% antibiotics (100 IU/ml penicillin/100 μg/ml streptomycin). The passage is performed every 3-4 to days as follows: Cells are washed with sterile PBS (Phosphate buffered saline): 8 g/l NaCl, 0,2 g/l KCl, 1,15 g/l Na2HPO4καl 0,2 g/l KH2PO4. pH:7,4), add 2-3 ml 0.05% trypsin (Gibco 1:250) and 0.02% EDTA to cover the monolayer and incubate the flask at 3TC for 5-10 minutes. Trypsin-EDTA, is used mainly to detach the cells from the flask and prepare a single cell suspension. Finally, the number of cells can be determined by direct counting using a Neubauer chamber and cell viability is determined by staining the cells with trypan blue.
(§2) In the experimental study the in vitro effect of the compound type (I) was evaluated against ovarian cancer cell lines UWB1.289, UWB1.289+BRCA1 Kai SKOV-3.The cells were plated in 96-well plate (MTP) at a density of 1×10^4cells/m1 per well and maintained for 72 h at 3TC in a 5% CO2 incubator and grown as monolayers. The selection of the initial number of cells was made according to the rate of proliferation of the cell line, in order the cells throughout the experiment are in an exponential (log) growth phase. After 24 hours, cells were treated with 1-100 μmol/l of the tested compounds for 48 h. Experiments were carried out using triplicate wells. The viability of cultured cells was estimated by an (3-(4,5-imethylthiazol-2-yl)-2,5-diphenyltetrazolium bromide (MTT) metabolic assay as described previously (Finlay G J, Wilson W R and Baguley B C: Comparison of in vitro activity of cytotoxic drugs towards human carcinoma and leukaemia cell lines. Eur J Cancer Clin Oncol 22: 655-662, 1986; Alley M C, Scudiero D A, Monks A, Hursey M L, Czerwinski M J, Fine D L, et al. Feasibility of drug screening with panels of human tumor cell lines using a microculture tetrazolium assay. Cancer Res 1988; 48:589-601). MTT (Sigma, St Louis, Mo., USA) was dissolved in PBS in a concentration of 5 mg/ml, filter sterilized, and stored at 4° C. MTT (50 μl of stock solution) was added to each culture and incubated for 3 h at 3TC to allow metabolization. Formazan crystals were solubilized by DMSO (100 μl). Absorbance of the converted dye was measured at a wavelength of 540nm on ELISA reader (BioTek, Winooski, Vt., USA).
(§3) GI50: The mean concentration that causes 50% inhibition of cell growth (Growth Inhibition 50%). The calculation of the value is based on the formula: (Tt72x)−(Ct24)/(Ct72)-(Ct24)×100=50
(§4) TGI: The mean concentration that causes 100% inhibition of cell growth (Total Growth Inhibition). The value is calculated according to the formula: (Tt72x)−(Ct24)/(Ct72)−(Ct24)×100=0
(§5) IC50: The mean concentration that kills 50% of the cells (Inhibition Concentration 50%). The value is calculated according to the formula: (Tt72x)−(Ct24)/(Ct24)×100=[…]

[2] = system: OVCAR-3 human ovarian cancer cell line; test: MTT cytostatic-cytotoxic activity, OVCAR-3; type: cell-based; settings: OVCAR-3, 48 h treatment; for IC50: kills 50% of the cells
Description: (§6) SKOV-3 (SKOV-3) (ATCC HTB 77) and OVCAR-3 (ATCC® HTB-161™)
(§7) Human ovarian adenocarcinoma cells, which are grown easily in monolayer culture with epithelial-like morphology. SKOV-3 are resistant to tumor necrosis factor (TNF) and to other cytotoxic drugs such as cisplatin, and adriamycin, while OVCAR-3 are resistant to adriamycin, cisplatin and melphalan. These cell lines express androgens, estrogens and progesterone receptors. When SKOV-3 or OVCAR-3 cells are subcutaneously implanted in nude mice, SCID mice, a moderately differentiated tumor develops, and the resulting model resembles primary ovarian adenocarcinoma in humans.
as §1, §2, §3
(§8) TGI: The mean concentration that causes 100% inhibition of cell growth (Total Growth Inhibition). […]

[3] = system: SKOV-3 human ovarian cancer cell line; test: MTT cytostatic-cytotoxic activity, SKOV-3; type: cell-based; settings: for IC50: kills 50% of the cells
Description: as §6, §7, §1, §2, §3, §8

[4] = system: UWB1.289 human ovarian cancer cell line (mutant BRCA1); test: MTT cytostatic-cytotoxic activity, UWB1.289; type: cell-based; settings: for IC50: kills 50% of the cells
Description: Also, UWB1.289 cells have mutated the p53 tumor suppressor gene and positive Wilms' tumor protein (WT) expression, have no functional BRCA1 gene and are positive for the expression of cytokeratin 7 (CK-7), calretinin and Wilms' tumor protein (WT). Finally they are sensitive to ionizing radiation.
as §1, §2, §3, §4, §5

[5] = system: MCF-7 human breast cancer cell line; test: MTT cytostatic-cytotoxic activity, MCF-7; type: cell-based; settings: for IC50: kills 50% of the cells
[6] = system: T-47D human breast cancer cell line; test: MTT cytostatic-cytotoxic activity, T-47D; type: cell-based; settings: 48 h treatment; for IC50: kills 50% of the cells
[7] = system: PC-3 human hormone-resistant prostate cancer cell line; test: MTT cytostatic-cytotoxic activity, PC-3; type: cell-based; settings: PC-3, 48 h treatment; for IC50: kills 50% of the cells
[8] = system: MOLT-4 human acute T-leukemia cell line; test: MTT cytostatic-cytotoxic activity, MOLT-4; type: cell-based; settings: MOLT-4, 48 h treatment; for IC50: kills 50% of the cells
[9] = system: A-549 human lung carcinoma cell line; test: MTT cytostatic-cytotoxic activity, A-549; type: cell-based; settings: for IC50: kills 50% of the cells
[10] = system: C57BI/6 mice; test: in vivo; settings: i.p., acute toxicity
Description: The acute toxicity of the compounds was assessed from lethality by testing different concentrations, starting at 100mg/kg. […] For intraperitoneal (i.p.) treatment, stock solutions of the tested compounds were prepared immediately before use. They were suspended in corn oil in the desired concentration following initial dissolution in 10% dimethylsulfoxide (DMSO). C57BI/6 male and female were used for toxicity studies. Mice were kept under conditions of constant temperature and humidity in sterile cages with water and food.

[11] = Homo sapiens, UWB1289, UWB1.289+BRCA1, 48 h treatment
[12] = Homo sapiens, SK-OV-3, SKOV-3, 48 h treatment
[13] = Homo sapiens, A549, A-549, 48 h treatment

melting point: 237 to 239 °C
SMILES: COc1cc(Cc2nnc3sc(-c4cccc(Cl)c4)nn23)c(S(=O)(=O)N(C)C)cc1OC [TS22, 3-[2-(N,N-dimethylsulfamoyl)-4,5-dimethoxybenzyl]-6-(3-chlorophenyl)-1,2,4-triazolo[3,4-b]-1,3,4-thiazole]
GI50 [1, 11]: 16 µM
IC50 [1, 11]: > 100 µM
TGI ([1]; UWB1.289+BRCA1, 48 h treatment): >100 µM
GI50 ([2]; Homo sapiens): 90 µM
IC50 ([2]; Homo sapiens): > 100 µM
TGI [2]: >100 µM
GI50 [3, 12]: 60 µM
IC50 [3, 12]: > 100 µM
TGI ([3]; SKOV-3, 48 h treatment): 100 µM
IC50 ([4]; Homo sapiens, UWB1289, UWB1.289, 48 h treatment): > 100 µM
TGI ([4]; UWB1.289, 48 h treatment): >100 µM
IC50 ([5]; Homo sapiens, MCF7, MCF-7, 48 h treatment): > 100 µM
TGI ([5]; MCF-7, 48 h treatment): 90 µM and >100 µM
GI50 [6]: 60 µM
TGI [6]: 97 µM and 100 µM
GI50 ([6]; Homo sapiens, T47D, 48 h): 48 µM
IC50 ([6]; Homo sapiens, T47D): > 100 µM
GI50 ([7]; Homo sapiens): > 100 µM
IC50 ([7]; Homo sapiens): > 100 µM
TGI [7]: >100 µM
GI50 ([8]; Homo sapiens): 72 µM
IC50 ([8]; Homo sapiens): > 100 µM
TGI [8]: >100 µM
TGI ([9]; A-549, 48 h treatment): 95 µM
GI50 [9, 13]: 45 µM
IC50 [9, 13]: > 100 µM

SMILES: COc1cc(Cc2nnc3sc(CC=Cc4ccccc4)nn23)c(S(=O)(=O)N(C)C)cc1OC [TS53, 3-[2-(N,N-dimethylsulfamoyl)-4,5-dimethoxybenzyl]-6-cinnamyl-1,2,4-triazolo[3,4-b]-1,3,4-thiazole]
GI50 ([1]; UWB1.289+BRCA1, 48 h treatment): 12 µM
TGI ([1]; UWB1.289+BRCA1, 48 h treatment): 28 µM
IC50 ([1]; UWB1.289+BRCA1, 48 h treatment): 42 µM
GI50 [2]: 5 µM
TGI [2]: 12 µM
IC50 [2]: 25 µM
GI50 ([3]; SKOV-3, 48 h treatment): 8 µM
TGI ([3]; SKOV-3, 48 h treatment): 16 µM
IC50 ([3]; SKOV-3, 48 h treatment): 32 µM
GI50 ([4]; UWB1.289, 48 h treatment): 12 µM
TGI ([4]; UWB1.289, 48 h treatment): 56 µM
IC50 ([4]; UWB1.289, 48 h treatment): > 100 µM
GI50 ([5]; MCF-7, 48 h treatment): 15 µM
TGI ([5]; MCF-7, 48 h treatment): 45 µM
IC50 ([5]; MCF-7, 48 h treatment): > 100 µM
GI50 [6]: 8 µM
TGI [6]: 37 µM
IC50 [6]: > 100 µM
GI50 [7]: 12 µM
TGI [7]: 31 µM
IC50 [7]: 85 µM
GI50 [8]: 4 µM
TGI [8]: 21 µM
IC50 [8]: 36 µM
GI50 ([9]; A-549, 48 h treatment): 9 µM
TGI ([9]; A-549, 48 h treatment): 24 µM
IC50 ([9]; A-549, 48 h treatment): 58 µM
LD10 [10]: >500 mg/kg
LD50 [10]: 375 mg/kg
